The subject of assay [1] is H929 multiple myeloma tumour line. Description: In vitro cytotoxicity, MTT assay, 48 hours. In kind it is cell-based. To be noted: H929 cells, 48 hours exposure, cell viability. How it is done:
The cytotoxicity studies were carried out on the H929 multiple myeloma tumour line.
The cells are distributed onto microplates and exposed to the test compounds for 48 hours.
(Tetrazolium assays rely on reduction of a dye to a coloured formazan, in cell work by metabolically active cells.)

Assay [2] has as its target Mcl-1 protein (Homo sapiens, UniProt Q07820). Nature of the assay: Inhibition of Mcl-1 by the fluorescence polarisation technique (Method 1 or Method 2). In kind it is binding. To be noted: for IC50: fluorescence polarisation, Fluorescein labelled ligand, Method 1 (not underlined) or Method 2 (underlined), read-out: IC50 (μM) Mcl-1 FP. The essentials: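 Fluorescence polarisation competition of 11-point compound dilutions (5% DMSO final) against fluorescein-labelled ligand for Mcl-1. Method 1: 1 nM ligand, 5 nM protein in 10 mM HEPES, 150 mM NaCl, 0.05% Tween 20, pH 7.4; Method 2: 10 nM ligand, 10 nM protein in 20 mM Na2HPO4, 1 mM EDTA, 50 mM NaCl, pH 7.4.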
A general note: In fluorescence polarisation assays a small probe gives low polarisation when free and higher when bound to something large.

Setting [3] is: partial inhibitors, @ 10 μM test compound.

Sequence of Mcl-1 protein (Q07820 whole entry): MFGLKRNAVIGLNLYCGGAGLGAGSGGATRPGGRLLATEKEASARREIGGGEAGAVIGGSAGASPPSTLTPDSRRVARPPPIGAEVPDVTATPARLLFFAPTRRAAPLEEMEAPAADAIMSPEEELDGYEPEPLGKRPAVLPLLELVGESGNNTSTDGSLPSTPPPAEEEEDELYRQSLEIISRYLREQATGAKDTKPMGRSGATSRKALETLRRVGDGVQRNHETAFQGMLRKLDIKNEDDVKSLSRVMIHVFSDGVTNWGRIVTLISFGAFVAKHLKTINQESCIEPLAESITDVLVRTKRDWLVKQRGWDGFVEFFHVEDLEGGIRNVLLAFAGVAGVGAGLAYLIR

Consider `Cc1c(-c2c(-c3ccsc3)sc3ncnc(NC(Cc4ccccn4)C(=O)O)c23)ccc(OCCN2CCOCC2)c1Cl` [Example 35, N-[(5Ra)-5-{3-chloro-2-methyl-4-[2-(morpholin-4-yl)ethoxy]phenyl}-6-(thiophen-3-yl)thieno[2,3-d]pyrimidin-4-yl]-3-pyridin-2-yl-D-alanine], for which, in assay [1], the IC50 (usually the concentration needed to halve the response being measured) is above 30000 nM. In assay [2] (setting [3]), the “percentage fluorescence polarisation inhibition, Mcl-1 FP” value was found to be 24.78% @ 10 μM.
As for `COc1ccccc1-c1nccc(COc2ccccc2CC(Nc2ncnc3sc(-c4ccc(F)o4)c(-c4ccc(OCCN5CCN(C)CC5)c(Cl)c4C)c23)C(=O)O)n1` [Example 27, N-[(5Sa)-5-{3-chloro-2-methyl-4-[2-(4-methylpiperazin-1-yl)ethoxy]phenyl}-6-(5-fluorofuran-2-yl)thieno[2,3-d]pyrimidin-4-yl]-2-{[2-(2-methoxyphenyl)pyrimidin-4-yl]methoxy}-D-phenylalanine], the IC50 was determined as 2.09 nM in assay [1] (Homo sapiens, NCI-H929) and 0.011 µM in assay [2].
The matching figures for `Cc1c(-c2c(-c3ccc(F)o3)sc3ncnc(NC(Cc4ccccc4O)C(=O)O)c23)ccc(OCCN2CCN(C)CC2)c1Cl` [Example 14, N-[(5Sa)-5-{3-chloro-2-methyl-4-[2-(4-methylpiperazin-1-yl)ethoxy]phenyl}-6-(5-fluorofuran-2-yl)thieno[2,3-d]pyrimidin-4-yl]-2-hydroxy-D-phenylalanine]: 721 nM and 0.038 µM.
The matching figures for `CCn1nccc1COc1ccccc1CC(Nc1ncnc2sc(-c3ccc(F)o3)c(-c3ccc(OCCN4CCN(C)CC4)c(Cl)c3C)c12)C(=O)O` [Example 21, N-[(5Sa)-5-{3-chloro-2-methyl-4-[2-(4-methylpiperazin-1-yl)ethoxy]phenyl}-6-(5-fluorofuran-2-yl)thieno[2,3-d]pyrimidin-4-yl]-2-[(1-ethyl-1H-pyrazol-5-yl)methoxy]-D-phenylalanine]: 39.7 nM and 0.006 µM.
In assay [1] (Homo sapiens, NCI-H929), `Cc1c(-c2c(-c3ccco3)sc3ncnc(N[C@H](Cc4ccccc4C(N)=O)C(=O)O)c23)ccc(OCCN2CCN(C)CC2)c1Cl` [Example 11, 2-carbamoyl-N-[5-{3-chloro-2-methyl-4-[2-(4-methylpiperazin-1-yl)ethoxy]phenyl}-6-(furan-2-yl)thieno[2,3-d]pyrimidin-4-yl]-D-phenylalanine] gave an IC50 above 3750 nM. Besides, in assay [2] (partial inhibitors, @ 10 μM test compound, read-out: percentage fluorescence polarisation inhibition, Mcl-1 FP), the inhibition (usually the percentage by which the read-out fell short of the control) at 10 µM turned out to be 35.5%.
As for `CC#Cc1sc2ncnc(NC(Cc3ccccc3OCc3ccnc(N4CCOCC4)n3)C(=O)O)c2c1-c1ccc(OCCN(C)C)c(Cl)c1C` [Example 47, N-[(5Sa)-5-{3-chloro-4-[2-(dimethylamino)ethoxy]-2-methylphenyl}-6-(prop-1-yn-1-yl)thieno[2,3-d]pyrimidin-4-yl]-2-{[2-(morpholin-4-yl)pyrimidin-4-yl]methoxy}-D-phenylalanine], the IC50 in assay [1] (Homo sapiens, NCI-H929) came out at 83.9 nM; in assay [2], 0.008 µM.
For the compound `Cc1c(-c2c(-c3ccco3)sc3ncnc(NC(Cc4ccccc4OCc4ccccn4)C(=O)O)c23)ccc(OCCN2CCN(C)CC2)c1Cl` [Example 12, N-[(5Sa)-5-{3-chloro-2-methyl-4-[2-(4-methylpiperazin-1-yl)ethoxy]phenyl}-6-(furan-2-yl)thieno[2,3-d]pyrimidin-4-yl]-2-(pyridin-2-ylmethoxy)-D-phenylalanine], the IC50 came to 647 nM in assay [1] (Homo sapiens, NCI-H929) and 0.014 µM in assay [2].
Regarding `Cc1c(-c2c(-c3ccco3)sc3ncnc(NC(Cc4ccccc4OCc4ccccn4)C(=O)O)c23)ccc(OCCN2CCN(C)CC2)c1Cl` [Example 13, N-[(5Ra)-5-{3-chloro-2-methyl-4-[2-(4-methylpiperazin-1-yl)ethoxy]phenyl}-6-(furan-2-yl)thieno[2,3-d]pyrimidin-4-yl]-2-(pyridin-2-ylmethoxy)-D-phenylalanine], the IC50 in assay [1] is above 3750 nM. For the same compound, the “percentage fluorescence polarisation inhibition, Mcl-1 FP” value in assay [2] (setting [3]) came to 58% @ 10 μM.
For the compound `Cc1c(-c2c(-c3ccsc3)sc3ncnc(NC(Cc4ccccn4)C(=O)O)c23)ccc(OCCN2CCN(C)CC2)c1Cl` [Example 29, N-[(5Sa)-5-{3-chloro-2-methyl-4-[2-(4-methylpiperazin-1-yl)ethoxy]phenyl}-6-(thiophen-3-yl)thieno[2,3-d]pyrimidin-4-yl]-3-pyridin-2-yl-D-alanine], the IC50 in assay [1] (Homo sapiens, NCI-H929) came to 2520 nM; in assay [2] it was 0.063 µM.
`Cc1c(-c2c(-c3ccco3)sc3ncnc(N[C@H](Cc4ccccc4Cl)C(=O)O)c23)ccc(OCCN2CCN(C)CC2)c1Cl` (single isomer, unassigned) [Example 10, 2-chloro-N-[5-{3-chloro-2-methyl-4-[2-(4-methylpiperazin-1-yl)ethoxy]phenyl}-6-(furan-2-yl)thieno[2,3-d]pyrimidin-4-yl]-D-phenylalanine] registered an IC50 in assay [1] (Homo sapiens, NCI-H929) above 3750 nM. Moreover, in assay [2] (partial inhibitors, @ 3.3 μM test compound, read-out: percentage fluorescence polarisation inhibition, Mcl-1 FP), the inhibition at 3.3 µM was 72.8%.
As for `Cc1c(-c2c(-c3ccc(F)cc3)sc3ncnc(NC(Cc4ccccc4OCc4ccnc(-c5ccccc5F)n4)C(=O)O)c23)ccc(OCCN(C)C)c1Cl` [Example 50, N-[(5Sa)-5-{3-chloro-4-[2-(dimethylamino)ethoxy]-2-methylphenyl}-6-(4-fluorophenyl)thieno[2,3-d]pyrimidin-4-yl]-2-{[2-(2-fluorophenyl)pyrimidin-4-yl]methoxy}-D-phenylalanine], the IC50 in assay [1] (Homo sapiens, NCI-H929) is above 150 nM; in assay [2], 0.007 µM.
On the same counts, the results for `COC(=O)c1oc(-c2sc3ncnc(NC(Cc4ccccc4OC)C(=O)O)c3c2-c2ccc(OCCN3CCN(C)CC3)c(Cl)c2C)cc1C` [Example 65, N-((5Sa)-5-{3-chloro-2-methyl-4-[2-(4-methylpiperazin-1-yl)ethoxy]phenyl}-6-[5-(methoxycarbonyl)-4-methylfuran-2-yl]thieno[2,3-d]pyrimidin-4-yl)-2-methoxy-D-phenylalanine] are at least 2780 nM and 0.345 µM.
The matching figures for `Cc1c(-c2c(-c3ccsc3)sc3ncnc(NC(CC4CCCCC4)C(=O)O)c23)ccc(OCCN2CCN(C)CC2)c1Cl` [Example 32, N-[(5Sa)-5-{3-chloro-2-methyl-4-[2-(4-methylpiperazin-1-yl)ethoxy]phenyl}-6-(thiophen-3-yl)thieno[2,3-d]pyrimidin-4-yl]-3-cyclohexyl-D-alanine]: above 3750 nM and 0.007 µM.
With `COc1ccccc1C[C@@H](Nc1ncnc2sc(-c3ccc(F)o3)c(-c3ccc(OCCN4CCN(C)CC4)c(Cl)c3C)c12)C(=O)O` [Example 15, N-[(5Ra)-5-{3-chloro-2-methyl-4-[2-(4-methylpiperazin-1-yl)ethoxy]phenyl}-6-(5-fluorofuran-2-yl)thieno[2,3-d]pyrimidin-4-yl]-2-methoxy-D-phenylalanine], the IC50 in assay [1] was above 3750 nM. Further, in assay [2] (setting [3]), the “percentage fluorescence polarisation inhibition, Mcl-1 FP” value is listed as 40.05% @ 10 μM.
Take `COc1ccccc1-c1nccc(COc2ccccc2C[C@@H](Nc2ncnc3sc(-c4ccc(F)cc4)c(-c4c(C)c(Cl)c(OCCN5CCN(C)CC5)c(Cl)c4C)c23)C(=O)O)n1` [Example 270, N-[5-{3,5-dichloro-2,6-dimethyl-4-[2-(4-methylpiperazin-1-yl)ethoxy]phenyl}-6-(4-fluorophenyl)thieno[2,3-d]pyrimidin-4-yl]-2-{[2-(2-methoxyphenyl)pyrimidin-4-yl]methoxy}-D-phenylalanine]: the IC50 in assay [1] (Homo sapiens, NCI-H929) stood at 522 nM; in assay [2], 0.055 µM.
On the same counts, the results for `Cc1c(-c2c(-c3ccc(F)cc3)sc3ncnc(NC(Cc4ccccc4OCc4ccnn4C)C(=O)O)c23)ccc(OCCN2CCN(C)CC2)c1Cl` [Example 3, N-[(5Sa)-5-{3-chloro-2-methyl-4-[2-(4-methylpiperazin-1-yl)ethoxy]phenyl}-6-(4-fluorophenyl)thieno[2,3-d]pyrimidin-4-yl]-2-[(1-methyl-1H-pyrazol-5-yl)methoxy]-D-phenylalanine] are 318 nM and 0.114 µM.
Take `Cc1c(-c2c(-c3ccc(F)o3)sc3ncnc(NC(Cc4ccccc4OCc4ccnn4C)C(=O)O)c23)ccc(OCCN2CCN(C)CC2)c1Cl` [Example 20, N-[(5Sa)-5-{3-chloro-2-methyl-4-[2-(4-methylpiperazin-1-yl)ethoxy]phenyl}-6-(5-fluorofuran-2-yl)thieno[2,3-d]pyrimidin-4-yl]-2-[(1-methyl-1H-pyrazol-5-yl)methoxy]-D-phenylalanine]: the IC50 worked out at 78.6 nM in assay [1] (Homo sapiens, NCI-H929) and 0.026 µM in assay [2].
In assay [1], `COC(=O)c1oc(-c2sc3ncnc(NC(Cc4ccccc4OC)C(=O)O)c3c2-c2ccc(OCCN3CCN(C)CC3)c(Cl)c2C)cc1C` [Example 66, N-((5Ra)-5-{3-chloro-2-methyl-4-[2-(4-methylpiperazin-1-yl)ethoxy]phenyl}-6-[5-(methoxycarbonyl)-4-methylfuran-2-yl]thieno[2,3-d]pyrimidin-4-yl)-2-methoxy-D-phenylalanine] returned an IC50 above 3750 nM. Also, the “percentage fluorescence polarisation inhibition, Mcl-1 FP” value in assay [2] (setting [3]) is 36.9% @ 10 μM.
`CCCCn1nccc1COc1ccccc1C[C@@H](Nc1ncnc2sc(-c3ccc(F)o3)c(-c3ccc(OCCN4CCN(C)CC4)c(Cl)c3C)c12)C(=O)O` [Example 23, 2-[(1-butyl-1H-pyrazol-5-yl)methoxy]-N-[(5Ra)-5-{3-chloro-2-methyl-4-[2-(4-methylpiperazin-1-yl)ethoxy]phenyl}-6-(5-fluorofuran-2-yl)thieno[2,3-d]pyrimidin-4-yl]-D-phenylalanine]: the IC50 in assay [1] was above 600 nM. Moreover, the “percentage fluorescence polarisation inhibition, Mcl-1 FP” value in assay [2] (partial inhibitors, @ 1 μM test compound) worked out at 41.27% @ 1 μM.

Source of the values: patent US10457687B2, “Aminoacid derivatives, a process for their preparation and pharmaceutical compositions containing them” (LES LABORATOIRES SERVIER, priority 2015, dated 2019).
